Laboratory results reported in patent US20060100243A1 (priority 2004, published 2006).
Entries after “also recorded” stand apart in the source; their conditions may differ. Read-outs that look alike come from different tables or passages of the source.

What was measured:
[1] = target: T1, recombinant human norepinephrine transporter (Homo sapiens, UniProt P23975); test: cell-based
T1 construct: expressed in transfected cells

[2] = target: T2, recombinant human dopamine transporter (Homo sapiens, UniProt Q01959); test: [125I]RTI-55 binding, dopamine transporter in HEK 293 cells; conditions: for Ki: HEK 293 cells; for potency at binding to the dopamine transporter and blocking dopamine reuptake: in words, compared with MPH / other samples
T2 construct: expressed in transfected cells

[3] = target: T1, recombinant human norepinephrine transporter; test: biochemical; assay type: binding
[4] = target: T3, recombinant human serotonin transporter (Homo sapiens, UniProt P31645); test: biochemical; assay type: binding
T3 construct: expressed in transfected cells

[5] = target: T3, recombinant human serotonin transporter; test: serotonin (5HT) reuptake inhibition in HEK 293 cells; assay type: cell-based; conditions: HEK 293 cells
[6] = target: T2, recombinant human dopamine transporter; test: dopamine reuptake inhibition in HEK 293 cells; assay type: cell-based; conditions: for IC50: HEK 293 cells; for NE/DA REUPTAKE: ratio of NE/DA reuptake IC50, selectivity for dopamine over norepinephrine transporter; for selectivity for the dopamine transporter over the norepinephrine transporter: in words, from binding and reuptake values
[7] = RR/SS racemates table, HEK 293 cells, read-out: NOREPINEPHRINE NE REUPTAKE (IC50)
[8] = DOPAMINE [I125]-RTI-55 BINDING (Ki), RR/SS racemates table
[9] = RR/SS racemates table, HEK 293 cells, read-out: NOREPINEPHRINE [I125]-RTI-55 BINDING (Ki)
[10] = RR/SS racemates table, HEK 293 cells, read-out: SEROTONIN [I125]-RTI-55 BINDING (Ki)
[11] = DOPAMINE DA REUPTAKE (IC50), RR/SS racemates table
[12] = NOREPINEPHRINE [I125]-RTI-55 BINDING (Ki)
[13] = SEROTONIN [I125]-RTI-55 BINDING (Ki)
[14] = SEROTONIN 5HT REUPTAKE (IC50), RS/SR racemates table
[15] = RS/SR racemates table, HEK 293 cells, read-out: NOREPINEPHRINE NE REUPTAKE (IC50)
[16] = RS/SR racemates table, read-out: DOPAMINE [I125]-RTI-55 BINDING (Ki)
[17] = RS/SR racemates table, HEK 293 cells, read-out: NOREPINEPHRINE [I125]-RTI-55 BINDING (Ki)
[18] = RS/SR racemates table, HEK 293 cells, read-out: SEROTONIN [I125]-RTI-55 BINDING (Ki)
[19] = RS/SR racemates table, read-out: DOPAMINE DA REUPTAKE (IC50)
[20] = DOPAMINE [I125]-RTI-55 BINDING (Ki), RS/SR racemates table
[21] = DOPAMINE DA REUPTAKE (IC50), RS/SR racemates table
[22] = RR/SS racemates table, read-out: DOPAMINE [I125]-RTI-55 BINDING (Ki)
[23] = RR/SS racemates table, read-out: DOPAMINE DA REUPTAKE (IC50)

T2 sequence (Q01959 whole entry): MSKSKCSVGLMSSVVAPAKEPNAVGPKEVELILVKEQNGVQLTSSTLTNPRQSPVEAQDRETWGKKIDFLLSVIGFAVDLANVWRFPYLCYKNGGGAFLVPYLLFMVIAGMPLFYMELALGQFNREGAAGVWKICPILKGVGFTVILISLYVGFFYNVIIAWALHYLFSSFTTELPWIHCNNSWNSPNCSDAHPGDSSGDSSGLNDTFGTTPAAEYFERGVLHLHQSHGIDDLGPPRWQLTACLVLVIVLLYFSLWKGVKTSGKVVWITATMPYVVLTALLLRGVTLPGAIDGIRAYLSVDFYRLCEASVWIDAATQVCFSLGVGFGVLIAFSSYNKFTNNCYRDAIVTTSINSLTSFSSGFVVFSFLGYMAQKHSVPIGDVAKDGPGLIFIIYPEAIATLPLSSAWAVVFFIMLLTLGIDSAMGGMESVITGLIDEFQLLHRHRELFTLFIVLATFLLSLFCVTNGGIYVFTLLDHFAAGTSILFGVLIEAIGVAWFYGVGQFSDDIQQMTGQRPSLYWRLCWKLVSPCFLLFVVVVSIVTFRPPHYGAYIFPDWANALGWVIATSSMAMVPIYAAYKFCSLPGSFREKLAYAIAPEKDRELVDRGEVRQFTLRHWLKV
T1 sequence (P23975 whole entry): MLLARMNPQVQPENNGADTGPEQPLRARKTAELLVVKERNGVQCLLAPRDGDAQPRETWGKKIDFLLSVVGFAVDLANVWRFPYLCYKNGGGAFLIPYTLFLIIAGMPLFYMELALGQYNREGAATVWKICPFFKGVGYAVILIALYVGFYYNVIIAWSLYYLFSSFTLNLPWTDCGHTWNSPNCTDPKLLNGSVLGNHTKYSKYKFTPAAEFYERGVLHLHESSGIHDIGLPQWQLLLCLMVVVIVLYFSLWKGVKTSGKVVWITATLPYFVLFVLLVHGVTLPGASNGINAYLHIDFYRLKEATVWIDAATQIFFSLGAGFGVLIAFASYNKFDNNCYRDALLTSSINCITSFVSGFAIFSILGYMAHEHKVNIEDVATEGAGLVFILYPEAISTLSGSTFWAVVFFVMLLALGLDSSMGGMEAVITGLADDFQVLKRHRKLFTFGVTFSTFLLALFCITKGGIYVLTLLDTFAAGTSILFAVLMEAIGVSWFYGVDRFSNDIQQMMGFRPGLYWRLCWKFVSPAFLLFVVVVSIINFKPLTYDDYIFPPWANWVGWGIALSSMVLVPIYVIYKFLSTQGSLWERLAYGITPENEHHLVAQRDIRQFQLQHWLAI
T3 sequence (P31645 whole entry): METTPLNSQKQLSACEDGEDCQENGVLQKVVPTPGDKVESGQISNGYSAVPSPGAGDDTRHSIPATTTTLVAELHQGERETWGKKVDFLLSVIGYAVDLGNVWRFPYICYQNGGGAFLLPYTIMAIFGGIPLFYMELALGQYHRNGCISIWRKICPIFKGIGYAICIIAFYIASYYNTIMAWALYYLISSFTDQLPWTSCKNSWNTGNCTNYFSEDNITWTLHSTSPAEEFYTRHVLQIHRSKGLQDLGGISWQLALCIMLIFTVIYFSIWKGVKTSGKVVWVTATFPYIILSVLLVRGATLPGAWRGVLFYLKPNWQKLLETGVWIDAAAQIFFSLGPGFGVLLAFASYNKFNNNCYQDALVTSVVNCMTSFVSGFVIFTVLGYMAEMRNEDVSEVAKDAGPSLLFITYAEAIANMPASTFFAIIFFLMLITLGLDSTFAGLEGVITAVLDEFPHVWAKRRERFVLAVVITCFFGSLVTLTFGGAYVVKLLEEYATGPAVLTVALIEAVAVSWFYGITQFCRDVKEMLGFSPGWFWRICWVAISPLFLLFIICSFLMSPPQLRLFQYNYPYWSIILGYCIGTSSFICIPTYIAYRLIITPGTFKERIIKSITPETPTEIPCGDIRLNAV

COC(=O)C(c1ccc(Cl)c(Cl)c1)C1CCCCN1 (single isomer, unassigned) [M] showed an IC50 [1, 7] of 10 ± 1 nM, a Ki [2, 8] of 1.4 ± 0.1 nM and a Ki [3, 9] of 14 ± 6 nM. It also gave a Ki [4, 10] of 1600 ± 150 nM, an IC50 ([5]; SEROTONIN 5HT REUPTAKE (IC50), RR/SS racemates table) of 540 ± 110 nM and an IC50 [6, 11] of 23 ± 3 nM. For the same compound, the “NE/DA REUPTAKE” value [6] was 0.43.
CC(C)CC(c1ccc(C(C)C)cc1)C1CCCCN1 (racemic) [PP] gave a Ki [3, 12] of 3200 ± 600 nM, a Ki [4, 13] of 1700 ± 500 nM and an IC50 [5, 14] of 1700 ± 100 nM.
For CC(C)CC(c1ccc(Cl)c(Cl)c1)C1CCCCN1 (racemic) [Sample NN], the IC50 [1, 15] was 19 ± 3 nM, the Ki [2, 16] was 31 ± 11 nM and the “potency at binding to the dopamine transporter and blocking dopamine reuptake” value (“potency at binding” for short) [2] was “considerably more potent; also recorded: most potent”. The Ki [3, 17] was 120 ± 30 nM, the Ki [4, 18] was 450 ± 40 nM and the IC50 ([5]; RS/SR racemates table, read-out: SEROTONIN 5HT REUPTAKE (IC50)) was 290 ± 60 nM. It also gave an IC50 [6, 19] of 13 ± 3 nM.
COC(=O)C(c1ccc(Cl)c(Cl)c1)C1CCCCN1 (single isomer, unassigned) [MM] showed an IC50 [1, 15] of 190 ± 50 nM, a Ki [2, 20] of 90 ± 14 nM and a Ki [3, 17] of 4200 ± 1900 nM. The Ki [4, 18] was 2500 ± 420 nM, the IC50 [5, 14] was 1100 ± 90 nM and the IC50 [6, 21] was 800 ± 110 nM.
CC(C)(C)CC(c1ccc(Cl)cc1)C1CCCCN1 (racemic) [FF] gave an IC50 ([1]; NORE[…] REUPTAKE (IC50)) of 730 ± 250 nM, a Ki [2, 20] of 600 ± 40 nM and a Ki [4, 18] of 3500 ± 1000 nM. For the same compound, the IC50 [5, 14] was 1800 ± 600 nM and the IC50 [6, 21] was 670 ± 260 nM.
CCCCC(c1ccc(Cl)cc1)C1CCCCN1 (single isomer, unassigned) [G] was tested, and the IC50 [1, 7] was 26 ± 7 nM, the Ki [2, 8] was 7.8 ± 1.1 nM and the “potency at binding” value [2] was “enhanced potency; also recorded: most potent”. It also gave a Ki ([3]; NOREPINEPHRINE [I125]-RTI-55 BINDING (Ki), RR/SS racemates table, HEK 293 cells) of 230 ± 30 nM and an IC50 [6, 11] of 8.2 ± 2.1 nM.
CCCC(c1ccc(Cl)cc1)C1CCCCN1 (racemic) [Sample E] was tested, and the IC50 [1, 7] was 50 ± 15 nM, the Ki [2, 22] was 11 ± 3 nM and the “potency at binding” value [2] was “enhanced potency; also recorded: most potent”. The Ki [3, 9] was 200 ± 80 nM, the Ki [4, 10] was 2700 ± 600 nM and the IC50 ([5]; RR/SS racemates table, read-out: SEROTONIN 5HT REUPTAKE (IC50)) was 2900 ± 1100 nM. For the same compound, the IC50 [6, 23] was 7.4 ± 0.4 nM, the “selectivity for the dopamine transporter over the norepinephrine transporter” value [6] was “enhanced selectivity” and the “NE/DA REUPTAKE” value [6] was 6.8.
Compound Clc1ccc(C(CC2CCCCC2)C2CCCCN2)cc1 (single isomer, unassigned) [HH] has an IC50 ([1]; NORE[…] REUPTAKE (IC50)) of 1700 ± 600 nM, a Ki [2, 20] of 260 ± 30 nM and a Ki [3, 12] of 4300 ± 200 nM. It also gave a Ki [4, 18] of 3700 ± 500 nM, an IC50 [5, 14] of 6400 ± 1300 nM and an IC50 [6, 21] of 410 ± 60 nM.
Clc1ccc(C(Cc2ccccc2)C2CCCCN2)cc1 (single isomer, unassigned) [JJ] was tested, and the IC50 ([1]; NORE[…] REUPTAKE (IC50)) was > 800 nM, the Ki [2, 20] was 550 ± 60 nM and the Ki [3, 12] was 4000 ± 800 nM. For the same compound, the Ki [4, 13] was 4300 ± 800 nM, the IC50 [5, 14] was 4700 ± 500 nM and the IC50 [6, 21] was 390 ± 60 nM.
Compound Clc1ccc(C(CCc2ccccc2)C2CCCCN2)cc1 (single isomer, unassigned) [II] has an IC50 ([1]; NORE[…] REUPTAKE (IC50)) of 610 ± 150 nM, a Ki [2, 20] of 700 ± 90 nM and a Ki [3, 12] of 2400 ± 700 nM. The Ki [4, 13] was 1840 ± 70 nM, the IC50 [5, 14] was 2100 ± 900 nM and the IC50 [6, 21] was 420 ± 140 nM.
Work on Clc1ccc(C(CC2CCCC2)C2CCCCN2)cc1 (racemic) [L] yielded an IC50 [1, 7] of 310 ± 40 nM, a Ki [2, 22] of 9.4 ± 1.5 nM and a Ki [3, 9] of 1700 ± 600 nM. For the same compound, the IC50 [6, 23] was 21 ± 1 nM.
For Clc1ccc(C(CC2CCCC2)C2CCCCN2)cc1 (racemic) [LL], the IC50 [1, 15] was 730 ± 230 nM, the Ki [2, 16] was 310 ± 80 nM and the Ki [3, 17] was 2600 ± 800 nM. For the same compound, the IC50 [6, 19] was 180 ± 20 nM.
For CC(C)(C)CC(c1ccc(Cl)cc1)C1CCCCN1 (racemic) [F], the IC50 ([1]; NORE[…] REUPTAKE (IC50)) was 520 ± 110 nM, the Ki [2, 8] was 120 ± 40 nM and the Ki [3, 12] was 1400 ± 400 nM. For the same compound, the Ki [4, 10] was 3900 ± 500 nM, the IC50 [6, 11] was 60 ± 2 nM and the “selectivity for the dopamine transporter over the norepinephrine transporter” value [6] was “enhanced selectivity”. For the same compound, the “NE/DA REUPTAKE” value [6] was 8.7.
In the case of CC(C)C(c1ccc(Cl)cc1)C1CCCCN1 (single isomer, unassigned) [CC], the Ki [2, 20] is reported as 900 ± 320 nM, the Ki [3, 12] is reported as > 10000 nM and the Ki [4, 13] is reported as > 10000 nM. For the same compound, the IC50 [6, 21] was 990 ± 280 nM.
For CC(C)CC(c1ccc(Cl)cc1)C1CCCCN1 (racemic) [Sample DD], the IC50 [1, 15] was 750 ± 170 nM, the Ki [2, 16] was 170 ± 50 nM and the “potency at binding” value [2] was “inactivity”. It also gave a Ki [3, 17] of 4500 ± 1500 nM and an IC50 [6, 19] of 380 ± 130 nM.
